Data from patent publication US20050240034A1, “Artemisinin-based peroxide compounds as broad spectrum anti-infective agents” (priority 2002, published 2005).
Like-named read-outs stand apart in the source and are kept apart here.

Columns and labels:
[1] = system: P. falciparum W2 (IndoChina); assay: antimalarial parasite LDH (pLDH) assay, W2; assay type: cell-based, Plasmodium falciparum; details: pLDH assay, Table 5; read-out: P. falciparum (W2 Clone) IC50
Experimental: (§1) The Thad Cochran National Center for Natural Products Research (University of Mississippi) in vitro antimalarial screen was conducted using an enzyme assay for detection of P. falciparum (see procedure below). This assay is based on the observation that lactate dehydrogenase (LDH) of P. falciparum is distinguishable from host LDH activity. P. falciparum LDH rapidly uses 3-acetyl pyridine nicotinamide adenine dinucleotide (APAD) as a coenzyme in the biotransformation of […].^38 The same process is carried out in human red blood cells at a very slow rate.
(§2) The “Antimalarial parasite LDH assay” is currently being conducted according the following procedure: prepare a suspension of RBC with a 2% parasitemia and 2% hematocrit in malaria complete medium. Dispense 200 μl aliquots of this suspension into each well of a 96 well microtiter plate. Add 10 μl volumes of the drugs to be tested in duplicate to the appropriate wells. Place the plates into humidified chamber and flush the cultures with a gas mixture consisting of 90% N2, 5% O2, and 5% CO2. Transfer the chamber containing the plates to an incubator, and incubate for 48 hours at 37° C. After 48 hours add 100 μl aliquots of the Malstat™ reagent to each well of a new 96-well microtiter plate Resuspend the cultures from the assay plate by mixing each well up and down several times. Remove 20 μl from each well of the resuspend culture and add to the plate containing the Malstat™ reagent. Incubate the plates at room temperature for 30 minutes. After 30 minutes, add to each well 20 μl of the 1:1 mixture of the NBT/PES solution (2 mg/ml and 0.1 mg/ml, respectively). Incubate the plates in the dark for 1 hour. Add 100 μl of 5% acetic acid solution to stop the reaction. The plate is then read at an endpoint of approximately 650 nm. The dose response curves are generated using Microsoft Excel.
(§3) Antimalarial activity of the analogues was determined in vitro on chloroquine sensitive (D)6, Sierra Leone) and resistant (W2, IndoChina) strains of Plasmodium falciparum. The 96 well microplate assay is based on evaluation of the effect of the compounds on the growth of asynchronous cultures of P. falciparum, determined by the assay of parasite lactate dehydrogenase (pLDH) activity.^28 The appropriate dilutions of the compounds were prepared in DMSO or RPMI-1640 medium and added to the cultures of P. falciparum (2% hematocrit, 2% parasitemia) set up in clear flat bottomed 96 well plates. The plates were placed into the humidified chamber and flushed with a gas mixture of 90% N2, 5% CO2 & 5% O2. The cultures were incubated at 37° C. for 48 hours. Growth of the parasite in each well was determined by pLDH assay using Malstat® reagent. The medium and RBC controls were also set-up in each plate.

[2] = system: P. falciparum D6 (Sierra Leone); assay: antimalarial parasite LDH (pLDH) assay, D6; assay type: cell-based, Plasmodium falciparum; details: pLDH assay, Table 5; read-out: P. falciparum (D6 Clone) IC50
Experimental: as §1, §2
as §3, with “plate. The standard antimalarial agents, chloroquine and artemisinin, were used as the positive controls while DMSO was tested as the negative control.” for “plate.”

[3] = system: Leishmania donovani promastigotes expressing firefly luciferase; assay: antileishmanial luciferase assay on transgenic promastigotes; assay type: cell-based
Experimental: Antileishmanial activity of the compounds was tested on a transgenic cell line of Leishmania donovani promastigotes expressing firefly luciferase.^29a In a 96 well microplate assay, compounds with appropriate dilution were added to the leishmania promastigotes culture (2×10^6 cell/mL). The plates were incubated at 26° C. for 72 hours and growth of leishmania promastigotes was determined by luciferase assay with Steady Glo® reagent (Promega, USA). Pentamidine and Amphotericin B were used as standard antileishmanial agents. The analogues were simultaneously tested for cytotoxicity on VERO cells (monkey kidney fibroblast) by Neutral Red assay.^29b IC50 values for the compounds were computed from the growth inhibition curve.

P. berghei N = assay: in vivo Peter's 4-day antimalarial test in mice, P. berghei N
Experimental: (§4) The parasitemia is determined on the day following the last treatment—day 4 to determine qualitatively the presence and degree of activity at the screening dose.

P. yoelli ssp. NS = assay: in vivo 4-day antimalarial test in mice, P. yoelli ssp. NS
Experimental: as §4

[4] = Table 1 (artemisinin analogues), NA = not active up to 125 μg/ml, read-out: Antileishmanial activity IC50
[5] = Table 3 (continues Table 1), read-out: Antileishmanial activity IC50
[6] = Table 4, NA = not active up to 125 μg/ml, read-out: IC50
[7] = mice, oral, 4-day test, unit not given
[8] = mice, subcutaneous, 4-day test, unit not given

Compound: CC1CCC2C(CCCc3ccc(O)cc3)C(=O)OC3OC4(C)CCC1C32OO4 (single isomer, unassigned; (+)) [Compound 33]
- IC50 [1]: 0.0047 µM
- IC50 [2]: 0.0079 µM
- IC50 [3, 4]: 44.7 µM

Compound: C[C@@H]1[C@H](O)[C@@H](C)/C=C/C=C/C=C/C=C/C=C/C=C/C=C/[C@H](O[C@@H]2O[C@H](C)[C@@H](O)[C@H](N)[C@@H]2O)C[C@@H]2O[C@](O)(C[C@@H](O)C[C@@H](O)[C@H](O)CC[C@@H](O)C[C@@H](O)CC(=O)O[C@H]1C)C[C@H](O)[C@H]2C(=O)O [Amphotericin B, reference compound]
- IC50 [3, 5]: 0.01 µM

Compound: C[C@@H]1CC[C@H]2[C@@H](C)C(=O)O[C@@H]3O[C@@]4(C)CC[C@@H]1[C@]32OO4 [Artemisinin, artemisinin]
- IC50 [2]: 0.017 µM
- IC50 [3, 4]: 124 µM

Compound: CC1CCC2C(CCCc3ccccc3)C(=O)OC3OC4(C)CCC1C32OO4 (stereo not shown) [Compound 26]
- IC50 [1]: 0.0013 µM
- IC50 [2]: 0.0047 µM
- IC50 [3, 4]: 11.6 µM

Compound: CC1CCC2C(CCCc3ccccc3)C(=O)OC3OC4(C)CCC1C32OO4 (stereo not shown) [Compound 27]
- IC50 [1]: 0.0034 µM
- IC50 [2]: 0.0104 µM
- IC50 [3, 4]: 45.3 µM

Compound: CC1CCC2C(CCCc3ccc(N(C)C)cc3)COC3OC4(C)CCC1C32OO4 (stereo not shown) [Compound 43a]
- IC50 [1]: 0.0143 µM
- IC50 [2]: 0.0165 µM
- IC50 [3, 5]: 36 µM

Compound: CC1CCC2C(CCC#N)C(=O)OC3OC4(C)CCC1C32OO4 (stereo not shown) [Compound 52]
- IC50 [1]: 0.0149 µM
- IC50 [2]: 0.0149 µM
- IC50 [3, 4]: 38.9 µM

Compound: CC1CCC2CC(=O)OC3OC4(C)CCC1C23OO4 (stereo not shown) [Compound 60]
- IC50 [3, 4]: 242 µM

Compound: CC1CCC2C(C)(C)C(=O)OC3OC4(C)CCC1C32OO4 (stereo not shown) [Compound 62]
- IC50 [3, 4]: 101 µM

Compound: CCCC1C(=O)OC2OC3(C)CCC4C(C)CCC1C24OO3 (stereo not shown) [Compound 63]
- IC50 [3, 4]: 16.8 µM

Compound: C=CCC1C(=O)OC2OC3(C)CCC4C(C)CCC1C24OO3 (stereo not shown) [Compound 64]
- IC50 [3, 4]: 17.8 µM

Compound: CCCCC1C(=O)OC2OC3(C)CCC4C(C)CCC1C24OO3 (stereo not shown) [Compound 65]
- IC50 [3, 4]: 12.3 µM

Compound: CC1CCC2C(CCCCc3ccccc3)C(=O)OC3OC4(C)CCC1C32OO4 (stereo not shown) [Compound 70]
- IC50 [3, 4]: 7.5 µM

Compound: CC1CCC2C(CCCc3cccc(F)c3)C(=O)OC3OC4(C)CCC1C32OO4 (stereo not shown) [Compound 71]
- IC50 [3, 4]: 3.7 µM

Compound: CC1CCC2C(CCCc3ccc(Cl)cc3)C(=O)OC3OC4(C)CCC1C32OO4 (stereo not shown) [Compound 72]
- IC50 [3, 4]: 11.9 µM

Compound: COc1ccc(CCCC2C(=O)OC3OC4(C)CCC5C(C)CCC2C35OO4)cc1 (stereo not shown) [Compound 73]
- IC50 [3, 4]: 12 µM

Compound: CC1CCC2C(CCCc3cc(F)cc(F)c3)C(=O)OC3OC4(C)CCC1C32OO4 (stereo not shown) [Compound 74]
- IC50 [3, 4]: 49.7 µM

Compound: CC1CCC2C(C)COC3OC4(C)CCC1C32OO4 (stereo not shown) [Compound 94]
- IC50 [3, 5]: 46.6 µM

Compound: CC1CCC2C(CCCc3ccc(Cl)cc3)COC3OC4(C)CCC1C32OO4 (stereo not shown) [Compound 95]
- IC50 [3, 5]: 4.9 µM

Compound: CC1CCC2C(CCCc3cccc(Cl)c3)COC3OC4(C)CCC1C32OO4 (stereo not shown) [Compound 96]
- IC50 [3, 5]: 3.7 µM

Compound: CC1CCC2C(CCCc3ccc(Cl)c(Cl)c3)COC3OC4(C)CCC1C32OO4 (stereo not shown) [Compound 97]
- IC50 [3, 5]: 2.3 µM

Compound: CC1CCC2C(CCCc3ccc(C(F)(F)F)cc3)COC3OC4(C)CCC1C32OO4 (stereo not shown) [Compound 98]
- IC50 [3, 5]: 1.8 µM

Compound: COc1ccc(CCCC2COC3OC4(C)CCC5C(C)CCC2C35OO4)cc1 (stereo not shown) [Compound 99]
- IC50 [3, 5]: 17.4 µM

Compound: CC1CCC2C(CCCc3cc(F)cc(F)c3)COC3OC4(C)CCC1C32OO4 (stereo not shown) [Compound 100]
- IC50 [3, 5]: 11 µM

Compound: CC1CCC2C(CCCc3cc(C(F)(F)F)cc(C(F)(F)F)c3)COC3OC4(C)CCC1C32OO4 (stereo not shown) [Compound 101]
- IC50 [3, 5]: 0.3 µM

Compound: CCCCN1C(=O)CC2CCC(C)C3CCC4(C)OOC23C1O4 (stereo not shown) [Compound 105]
- IC50 [3, 6]: 44.5 µM

Compound: CC1CCC2CC(=O)N(CC(=O)OC(C)(C)C)C3OC4(C)CCC1C23OO4 (stereo not shown) [Compound 107]
- IC50 [3, 6]: 27.5 µM

Compound: CC1CCC2CC(=O)N(Cc3ccccc3)C3OC4(C)CCC1C23OO4 (stereo not shown) [Compound 108]
- IC50 [3, 6]: 56 µM

Compound: CC1CCC2CC(=O)N(Cc3ccc(Cl)cc3)C3OC4(C)CCC1C23OO4 (stereo not shown) [Compound 109]
- IC50 [3, 6]: 25.5 µM

Compound: CC1CCC2CC(=O)N(CCc3ccccc3)C3OC4(C)CCC1C23OO4 (stereo not shown) [Compound 110]
- IC50 [3, 6]: 32.3 µM

Compound: C[C@@H]1CC[C@@H]([C@@H](C)CO)[C@@]23C=C[C@@](C)(CC[C@@H]12)OO3 [Compound 112]
- IC50 ([3]; Leishmania donovani): 131 µM

Compound: N=C(N)c1ccc(OCCCCCOc2ccc(C(=N)N)cc2)cc1 [Pentamidine, reference compound]
- IC50 ([3]; Leishmania donovani, read-out: Antileishmanial activity IC50): 1.35 µM

Compound: C[C@H]1[C@H](OC(=O)CCC(=O)[O-])O[C@@H]2O[C@@]3(C)CC[C@H]4[C@H](C)CC[C@@H]1[C@@]24OO3.[Na+] [Sodium artesunate, sodium artesunate, reference compound]
- P. berghei N P.O. ED50 (P. berghei N; [7]): 2.4
- P. berghei N P.O. ED90 (P. berghei N; [7]): 13.0
- P. berghei N S.C. ED50 (P. berghei N; [8]): 1.5
- P. berghei N S.C. ED90 (P. berghei N; [8]): 6.3
- % Suppression (P. berghei N; strain N, route PO): 77.2%
- ED50 (P. berghei N; strain N, route PO): <10 mg/kg × 4
- ED90 (P. berghei N; strain N, route PO): >10 mg/kg × 4
- % Suppression (P. yoelli ssp. NS; strain NS, route PO): 56.5%
- ED50 (P. yoelli ssp. NS; strain NS, route PO): <10 mg/kg × 4
- ED90 (P. yoelli ssp. NS; strain NS, route PO): >10 mg/kg × 4
- P. yoelli ssp. NS (S.C.) ED50 (P. yoelli ssp. NS; subcutaneous, unit inferred): 5.3 mg/kg
- P. yoelli ssp. NS (S.C.) ED90 (P. yoelli ssp. NS; subcutaneous, unit inferred): 23.3 mg/kg

Compound: (+)-Octabydro-3,6α-dimethyl-3,12-epoxy-9β-(3′-(m-fluorophenyl)propyl)-12H-pyrano[4,3j]-1,2-benzodioxepin-10(3H)-one [Compound 30]
- IC50 [1]: 0.02 µM
- IC50 [2]: 0.0301 µM
- IC50 [3, 4]: 53.8 µM

Compound: (+)-Octahydro3,6α-dimethyl-3,12-epoxy-9β-(3′-(3,5-difluorophenyl)propyl)-12H-pyrano[4,3j)-1,2-benzodioxepin-10(3H)-one [Compound 34]
- IC50 [1]: 0.016 µM
- IC50 [2]: 0.0188 µM
- IC50 [3, 4]: 14.4 µM

Compound: (+)-Octahydro-3,6α-dimethyl-3,12-epoxy-9β-(3′-(trifluoromethyl)propyl)-12H-pyrano[4,3j]-1,2-benzodioxepin-10(3H)-one [Compound 28]
- IC50 [1]: 0.0508 µM
- IC50 [2]: 0.0439 µM
- IC50 [3, 4]: 1.4 µM
